According to patent US12648941B2, “Piperidine urea derivatives for use as inotropic agents” (Helsinn Healthcare SA, priority 2021, dated 2026):
Entries after “also recorded” stand apart in the source; their conditions may differ.

Key:
[1] = test system: cardiomyocytes isolated from hearts of SHAM mice; experiment: Cardiomyocyte contractility (fractional shortening, % FS), SHAM cardiomyocytes; format: cell-based, mouse
Protocol: (§1) Cardiomyocytes were isolated freshly from cardiac ventricles separately from SHAM and HF mice following the protocol developed by the Alliance for Cellular Signalling (AfCS Procedure Protocol ID PP00000125). From each of the 5 SHAM and 3 HF hearts a cell suspension was made and divided into 10 aliquots each, for a total of 50 aliquots from SHAM and 30 aliquots from HF hearts. These aliquots were treated with vehicle, AC01/HM01 or D-Lys3-GHPR-6+AC01/HM01 as stated and used for the subsequent physiological and biochemical experiments.
(§2) AC01/HM01 was suspended in phosphate buffer saline solution (PBS: in mM: NaCl 137, KCl 7, Na2HPO4 10, KH2PO4 […]) and diluted to obtain 3 different concentrations: 0.2, 0.5 or 1 μM in Tyrode solution. We used a concentration range within 0.2-1 μM to ensure that the receptor was activated. […] Prior to contractility and Ca^2+ signaling measurements and biochemical assays, cardiomyocyte suspensions from SHAM and HF hearts were randomized to 3 types of treatments: vehicle, AC01/HM01, or D-Lys3-GHPR-6+AC01/HM01. The treatment with different agents occurred for 15 minutes at room temperature. Some cell suspension aliquots were flash frozen in liquid N2 and stored at −80° C. for later biochemistry analyses. All the experiments were conducted blinded regarding the treatment of cardiomyocytes.
Fresh isolated cardiomyocytes were aliquoted in 1.5 mL tubes and incubated with a cell permeable form of the fluorescent Ca^2+ indicator Fluo-3 AM for approximately 20 minutes followed by washing for >5 min. The cells were plated on laminin coated glass bottom dishes (35 mm, Mattek, Ashland, MA, USA), and then mounted in a custom built perfusion/stimulation chamber. Cells were continuously perfused with O2/CO2 (95/5%) bubbled Tyrode solution with the following composition (in mM): NaCl 121, KCl 5.0, CaCl2 1.8, MgCl2 0.5, NaH2PO4 0.4, NaHCO3 24, EDTA 0.1, glucose 5.5, which represents the vehicle solution.
15 aliquots of cardiomyocyte suspension from SHAM and 9 aliquots from HF were randomized to different treatments: vehicle, AC01/HM01 (0.2, 0.5 or 1 μM) or pretreatment with D-Lys3-GHPR-6 (3 μM) followed by AC01/HM01 (1 μM). The cardiomyocytes were electrically stimulated to contract at 1 Hz with supra-threshold voltage using two platinum electrodes attached to the perfusion/stimulation chamber.
(§3) Line scan fluorescence images were acquired using a confocal microscope (Biorad; 40× oil immersion lenses). […] ImageJ software (open source software developed by NIH, Bethesda, USA) was used to quantify changes in fluorescence (Ca^2+ transients) and contractility of single cardiomyocytes.
(§4) The contractility of cardiomyocytes was measured as the percent of length shortening (fractional shortening; % FS). […]

[2] = test system: insulin-like growth factor-1 (IGF-1); experiment: Phase 1 SAD pharmacodynamics, serum IGF-1 (ELISA); format: in vivo, human; settings: 0.1-10 mg
Protocol: (§5) Blood samples for determination of growth hormone (GH), insulin-like growth factor-1 (IGF-1), adrenocorticotropic hormone (ACTH), prolactin, cortisol and aldosterone in serum at pre-dose and 0.5, 1, 2, 3, 4, 6 and 24 hours post-dose were collected by venous puncture. All biomarkers were determined using enzyme linked immunosorbent assays (ELISA). Simplified nutritional appetite questionnaire based on appetite assessments at Day −1 after dinner, and on Day 1 pre-dose, 1, 2, 4, 8, and 24 hours after dosing. Stool diary starting on Day 1 until discharge on Day 4.

[3] = test system: cardiomyocytes isolated from hearts of heart failure (HF) mice; experiment: Cardiomyocyte contractility (fractional shortening, % FS), heart failure (MI) cardiomyocytes; format: cell-based, mouse; settings: 1 μM
Protocol: as §1
AC01/HM01 was suspended in phosphate buffer saline solution (PBS: in mM: NaCl 137, KCl 7, Na2HPO4 10, KH2PO4 […]) and diluted to obtain 3 different concentrations: 0.2, 0.5 or 1 μM in Tyrode solution. We used a concentration range within 0.2-1 μM to ensure that the receptor was activated. […]
as §3, §4

[4] = Phase 1 SAD, safety and tolerability; format: in vivo, human
Protocol: Single-center, randomized, double-blind, placebo-controlled, single ascending dose (SAD) study. Screening examinations were performed within 28 days prior to dosing. Eligible subjects returned to the study center in the morning of Day-1 and remained in-patient until discharge at 72 hours after dosing (morning of Day 4) if there were no safety issues. The oral dose was administered in the morning of Day 1. Subjects returned to the clinic 7 days after treatment, in the morning of Day 8 (±1 day), for the safety assessments. Adverse events (AEs), vital signs (blood pressure, pulse rate and body temperature), 12-lead ECG, Holter-ECG, physical examination (PE), and laboratory tests (hematology, clinical chemistry, and urinalysis) assessed during screening and several times throughout the study.

[5] = test system: Protein kinase A (PKA); experiment: PKA activity assay in cardiomyocytes (ELISA-based kit); format: cell-based, mouse; settings: isolated cardiomyocytes; 1 μM
Protocol: as §2
Elisa-based PKA kinase activity assay kit (ab139435, Abcam, Cambridge, UK) was employed to determine PKA activity in cardiomyocytes. Aliquots of frozen cardiomyocytes were thawed and mixed with a lysis buffer containing (mM) the following: 20 MOPS, 50 β-glycerolphosphate, 5 EGTA, 2 EDTA, 1 benzamidine, 1 sodium orthovanadate, 1% NP40, 1 DTT, complete protease inhibitor cocktail (Roche Diagnostics, West Sussex, UK) and phosphatase inhibitor cocktail 3 (Sigma, Gillingham, UK). Approximately 2 μg of protein of each sample were assayed according to the manufacturer's instructions 27.

[6] = Phase 1 SAD, stool diary; format: in vivo, human; settings: between dose groups
Protocol: as §5

[7] = Phase 1 SAD, simplified nutritional appetite questionnaire; format: in vivo, human; settings: 0.1-10 mg
Protocol: as §5

[8] = test system: phospho (Ser 22-23) cardiac troponin I (cTnl); experiment: Phospho (Ser 22-23) cTnl western blot in cardiomyocytes; format: cell-based, mouse; settings: SHAM cardiomyocytes; 1 μM; western blot normalized to total cTnl
Protocol: as §2
Aliquots of frozen cardiomyocyte suspensions were lysed using NP40 buffer (Thermo Fisher FNN0021, Stockholm, Sweden) supplemented with phosphatase inhibitors (Sigma-Aldrich P2850-1ML, P5726-1ML, Stockholm, Sweden). Protein lysates were separated by electrophoresis and transferred onto membranes. Membranes were incubated with primary antibody: rabbit anti phospho (Ser 22-23) cardiac troponin I (cTnl, Cell Signalling, Leiden, The Netherlands #4004S) and rabbit anti-cTnl (Cell Signalling #4002S, Leiden, The Netherlands). Thereafter, infrared-labelled secondary antibodies (IRDye 680 and IRDye 800, 1:5000, Licor) were used. Immunoreactive bands were analyzed using the Odyssey Infrared Imaging System (Li-Cor, Bad Homburg, Germany). Band densities were quantified with Image J (NIH, Bethesda, USA), normalized to total cTnl and final data was expressed as fold increase compared to bands representing protein extracted from vehicle treated cells.

COc1ccc([C@H](C)NC(=O)N(C)[C@@H]2CCN(C)CC2(C)C)c(Cl)c1Cl.Cl [AC01/HM01, 1-[(1S)-1-(2,3-dichloro-4-methoxyphenyl)ethyl]-3-methyl-3-[(4R)-1-methyl-3,3-dimethyl-4-piperidyl]-urea]
contractility, fractional shortening (FS %) vs vehicle ([1]; 0.5 μM): considerable and statistically significant response
contractility, fractional shortening (FS %) vs vehicle ([1]; 1 μM): considerable and statistically significant response; also recorded: significant increase of contractility; also recorded: greatest contractile effect compared to vehicle; also recorded: positively responded
contractility, length fractional shortening (FS %), concentration dependence ([1]; 0.2, 0.5 and 1 μM vs vehicle, 1 Hz stimulation): increased in a dose-dependent manner; also recorded: dose-dependent increase
IGF-1 serum levels, dose groups vs placebo [2]: No relevant differences
contractility, fractional shortening (FS %) vs vehicle [3]: significant increase of contractility; also recorded: positively responded
TEAEs reported ([4]; 0.1 mg): no TEAEs
number of TEAEs ([4]; 0.3 mg): 5 TEAEs
number of TEAEs ([4]; 1.0 mg): 7 TEAEs
subjects reporting TEAEs of moderate intensity ([4]; 1.0 mg, hot flush): 1 subject
number of TEAEs ([4]; 10 mg): 19 TEAEs
subjects reporting TEAEs of moderate intensity ([4]; 10 mg, sinus bradycardia): 1 subject
number of subjects reporting TEAEs and number of TEAEs, dose dependence ([4]; 0.1-10 mg single oral dose): increased dose-dependently
mean systolic and diastolic blood pressure and body temperature ([4]; after dosing / between treatment groups): no clinically relevant changes
intensity of TEAEs ([4]; all dose groups): Most TEAEs were of mild intensity
laboratory parameters, differences between dosing groups ([4]; in vivo): no clinically relevant differences
most frequently reported TEAEs ([4]; started mainly shortly after dosing, short duration): nervous system disorder (mainly headache) and cardiac disorders (mainly sinus bradycardia)
PKA activity vs vehicle [5]: decreased; also recorded: reduction of PKA activity
number of bowel movements per day and number of subjects with bowel movement [6]: no dose-related differences
appetite questionnaire, dose groups vs placebo [7]: no relevant or consistent differences
phosphorylation of cTnl (Serine 22-23) vs vehicle [8]: decreased phosphorylation levels; also recorded: reduced the levels of phosphorylation
